This experiment deals with T1, IRAK-M (Homo sapiens, UniProt Q9Y616).
T1 sequence (Q9Y616 1-596): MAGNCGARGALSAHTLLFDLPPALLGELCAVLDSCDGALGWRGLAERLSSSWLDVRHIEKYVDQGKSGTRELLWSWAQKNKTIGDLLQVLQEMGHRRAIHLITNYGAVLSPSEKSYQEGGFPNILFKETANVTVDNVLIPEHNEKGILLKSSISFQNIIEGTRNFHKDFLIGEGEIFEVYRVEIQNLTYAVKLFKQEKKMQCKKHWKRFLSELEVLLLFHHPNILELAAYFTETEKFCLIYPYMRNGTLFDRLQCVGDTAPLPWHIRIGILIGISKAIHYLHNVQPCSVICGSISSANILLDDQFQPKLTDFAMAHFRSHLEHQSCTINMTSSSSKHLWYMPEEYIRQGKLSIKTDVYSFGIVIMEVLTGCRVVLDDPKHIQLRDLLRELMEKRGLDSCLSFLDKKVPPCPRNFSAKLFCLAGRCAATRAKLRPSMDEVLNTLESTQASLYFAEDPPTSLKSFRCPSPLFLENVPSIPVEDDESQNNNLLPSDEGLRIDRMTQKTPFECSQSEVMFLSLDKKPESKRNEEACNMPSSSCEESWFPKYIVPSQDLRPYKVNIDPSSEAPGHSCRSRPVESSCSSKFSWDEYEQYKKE
Description: IRAK-M binding inhibitory activity (KINOMEscan active site-dependent competitive assay). Also noted: purchased Eurofins Discover X. The settings on record: for IC50: second symbol of cell, read-out: IRAK-M binding inhibition IC50 value; for remaining binding at 1 µM: concentration of the test compound 1 μM, first symbol of cell, read-out: IRAK-M binding inhibition activity % Ctrl. On the procedure: IRAK-M binding inhibitory activity was evaluated using active site-dependent competitive assay KINOMEscan® provided by Eurofins Discover X (Goldstein, D. M. et al. High-throughput kinase profiling as a platform for drug discovery. Nat. Rev. Drug Discovery. 7, 391-397 (2008)). IRAK-M binding inhibitory activity of the test compound was evaluated. […] The “% Ctrl” is calculated by the following formula.
(test compound signal−positive control compound signal)/(negative control compound signal−positive control compound signal)×100
Negative control compound=DMSO (100 Ctrl)
Positive control compound=control compound (0%×Ctrl)

Where only a bound is given, the exact number is not on record here.

For `Cc1ncsc1-c1ccc(CNC(=O)[C@@H]2C[C@@H](O)CN2C(=O)[C@@H](NC(=O)COCCOCCOCCOc2cc(CN3CCC(Oc4ccnc5ccsc45)CC3)on2)C(C)(C)C)cc1` [Example 61, (2S,4R)-1-((S)-2-(tert-butyl)-4-oxo-14-((5-((4-(thieno[3,2-b]pyridin-7-yloxy)piperidin-1-yl)methyl)isoxazol-3-yl)oxy)-6,9,12-trioxa-3-azatetradecanoyl)-4-hydroxy-N-(4-(4-methylthiazol-5-yl)benzyl)pyrrolidine-2-carboxamide], the IC50 fell in the range of 300 to 1000 nM. Turning to `c1ccc(-c2cc3ncnc(NCC4CC4)c3s2)cc1` [Ref. example 14, N-(cyclopropylmethyl)-6-phenylthieno[3,2-d]pyrimidin-4-amine], the remaining binding at 1 µM was in the range of 25 to 50%. Consider `c1cc(Nc2ncnc3ccsc23)ccn1` [Ref. example 21, N-(pyridin-4-yl)thieno[3,2-d]pyrimidin-4-amine], for which the remaining binding at 1 µM was less than 25%. On to `O=S(=O)(c1ccccc1OC(F)(F)F)N1CCC(Oc2ncnc3ccsc23)CC1` [Ref. example 50, 4-((1-((2-(trifluoromethoxy)phenyl)sulfonyl)piperidin-4-yl)oxy)thieno[3,2-d]pyrimidine], for which the remaining binding at 1 µM was 25 to 50%. Turning to `NC(=O)c1ccc(Nc2nc(Cl)nc3ccsc23)cc1` [Ref. example 33, 4-((2-chlorothieno[3,2-d]pyrimidin-4-yl)amino)benzamide], the remaining binding at 1 µM was not below 75%. `COc1ccc(Nc2nc(C)nc3cc(C)sc23)cc1OC` [Ref. example 66, N-(3,4-dimethoxyphenyl)-2,6-dimethylthieno[3,2-d]pyrimidin-4-amine]: the remaining binding at 1 µM fell in the range of 50 to 75%.

As to `Cc1ccc(S(=O)(=O)N2CCC(Oc3ncnc4ccsc34)CC2)cc1` [Ref. example 55, 4-((1-(4-methylbenzenesulfonyl)piperidin-4-yl)oxy)thieno[3,2-d]pyrimidine], the remaining binding at 1 µM lay in the range of 25 to 50%. With `Cc1ncsc1-c1ccc(CNC(=O)[C@@H]2C[C@@H](O)CN2C(=O)[C@H](C(C)C)N2Cc3ccccc3C2=O)c(OCCOCCOCCOCCOc2cc(CN3CCC(Oc4ccnc5ccsc45)CC3)on2)c1` [Example 64, (2S,4R)-4-hydroxy-1-((S)-3-methyl-2-(1-oxoisoindolin-2-yl)butanoyl)-N-(4-(4-methylthiazol-5-yl)-2-(2-(2-(2-(2-((5-((4-(thieno[3,2-b]pyridin-7-yloxy)piperidin-1-yl)methyl)isoxazol-3-yl)oxy)ethoxy)ethoxy)ethoxy)ethoxy)benzyl)pyrrolidine-2-carboxamide], the remaining binding at 1 µM was not below 75%. Consider `CC(C)CS(=O)(=O)N1CCC(Oc2ncnc3ccsc23)CC1` [Ref. example 62, 4-((1-(isobutylsulfonyl)piperidin-4-yl)oxy)thieno[3,2-d]pyrimidine], for which the remaining binding at 1 µM is 25 to 50%. `c1csc(CN2CCC(Oc3ccnc4ccsc34)CC2)n1` [Ref. example 79, 7-((1-(thiazol-2-ylmethyl)piperidin-4-yl)oxy)thieno[3,2-b]pyridine]: the remaining binding at 1 µM was 25 to 50%. On the same count and under the same terms, the result for `O=S(=O)(c1cccc(F)c1)N1CCC(Oc2ncnc3ccsc23)CC1` [Ref. example 56, 4-((1-((3-fluorophenyl)sulfonyl)piperidin-4-yl)oxy)thieno[3,2-d]pyrimidine] reads 25 to 50%.

Consider `C=CCOc1cc(C(C)N2CCC(Oc3ccnc4ccsc34)CC2)on1` (stereo not drawn) [Ref. example 83, 3-(allyloxy)-5-(1-(4-(thieno[3,2-b]pyridin-7-yloxy)piperidin-1-yl)ethyl)isoxazole], for which the IC50 is less than 30 nM. In the case of `c1ccc(CCNc2ncnc3cc(-c4ccccc4)sc23)cc1` [Ref. example 17, N-phenethyl-6-phenylthieno[3,2-d]pyrimidin-4-amine], the remaining binding at 1 µM was not below 75%. In the case of `O=S(=O)(c1ccc(Cl)cc1)N1CCC(Oc2ncnc3ccsc23)CC1` [Ref. example 52, 4-((1-((4-chlorophenyl)sulfonyl)piperidin-4-yl)oxy)thieno[3,2-d]pyrimidine], the remaining binding at 1 µM was less than 25%. On the same count and under the same terms, as for `Cc1ccc(NS(=O)(=O)c2ccc(CNC(=O)COCCOCCOc3cc(CN4CCC(Oc5ccnc6ccsc56)CC4)on3)cc2)c2[nH]cc(C#N)c12` [Example 68, N-(4-(N-(3-cyano-4-methyl-1H-indol-7-yl)sulfamoyl)benzyl)-2-(2-(2-((5-((4-(thieno[3,2-b]pyridin-7-yloxy)piperidin-1-yl)methyl)isoxazol-3-yl)oxy)ethoxy)ethoxy)acetamide], the figure is 25 to 50%. With `C=CCOc1cc(C(C)N2CCC(Oc3ccnc4ccsc34)CC2)on1` (single isomer, unassigned) [Ref. example 6, 3-(allyloxy)-5-(1-(4-(thieno[3,2-b]pyridin-7-yloxy)piperidin-1-yl)ethyl)isoxazole (enantiomer)], the IC50 was in the range of 100 to 300 nM.

Regarding `O=C1CCC(N2C(=O)c3cccc(OCCOCCOCCOc4cc(CN5CCC(Oc6ccnc7ccsc67)CC5)on4)c3C2=O)C(=O)N1` (stereo not drawn) [Example 65, 2-(2,6-dioxopiperidin-3-yl)-4-(2-(2-(2-((5-((4-(thieno[3,2-b]pyridin-7-yloxy)piperidin-1-yl)methyl)isoxazol-3-yl)oxy)ethoxy)ethoxy)ethoxy)isoindoline-1,3-dione], the IC50 lay within 300 to 1000 nM. With `CS(=O)(=O)N1CCC(Oc2ncnc3ccsc23)CC1` [Ref. example 39, 4-((1-(methylsulfonyl)piperidin-4-yl)oxy)thieno[3,2-d]pyrimidine], the remaining binding at 1 µM is 50 to 75%. The same measure, in the same setting: as for `c1nc(Nc2ccc3[nH]cnc3c2)c2sccc2n1` [Ref. example 26, N-(1H-benzo[d]imidazol-5-yl)thieno[3,2-d]pyrimidin-4-amine], the figure is not below 75%; as for `O=S(=O)(c1ccc(F)cc1)N1CCC(Oc2ncnc3ccsc23)CC1` [Ref. example 53, 4-((1-((4-fluorophenyl)sulfonyl)piperidin-4-yl)oxy)thieno[3,2-d]pyrimidine], 25 to 50%; as for `O=S(=O)(c1ccccc1Oc1ccc(F)cc1)N1CCC(Oc2ncnc3ccsc23)CC1` [Ref. example 48, 4-((1-((2-(4-fluorophenoxy)phenyl)sulfonyl)piperidin-4-yl)oxy)thieno[3,2-d]pyrimidine], less than 25%.

As for `Cc1cnn(C)c1S(=O)(=O)N1CCC(Oc2ncnc3ccsc23)CC1` [Ref. example 61, 4-((1-((1,4-dimethyl-1H-pyrazol-5-yl)sulfonyl)piperidin-4-yl)oxy)thieno[3,2-d]pyrimidine], the remaining binding at 1 µM is not below 75%.

On to `Cc1ncsc1-c1ccc(CNC(=O)[C@@H]2C[C@@H](O)CN2C(=O)[C@H](C(C)C)N2Cc3ccccc3C2=O)c(OCCOCCOCCOc2cc(CN3CCC(Oc4ccnc5ccsc45)CC3)on2)c1` [Example 62, (2S,4R)-4-hydroxy-1-((S)-3-methyl-2-(1-oxoisoindolin-2-yl)butanoyl)-N-(4-(4-methylthiazol-5-yl)-2-(2-(2-(2-((5-((4-(thieno[3,2-b]pyridin-7-yloxy)piperidin-1-yl)methyl)isoxazol-3-yl)oxy)ethoxy)ethoxy)ethoxy)benzyl)pyrrolidine-2-carboxamide], for which the remaining binding at 1 µM fell in the range of 50 to 75%.

As to `COCCOc1cc(CN2CCC(Oc3ccnc4ccsc34)CC2)on1` [Ref. example 85, 3-(2-methoxyethoxy)-5-((4-(thieno[3,2-b]pyridin-7-yloxy)piperidin-1-yl)methyl)isoxazole], the IC50 lay within 100 to 300 nM.

Values taken from patent publication US20220402935A1, “HETEROCYCLIC COMPOUND” (FIMECS, INC., priority 2019, published 2022).
